Key:
[1] = test system: PNs, Fmr1-KO cerebellar slices; test: Spontaneous firing of PNs, cell-attached, Fmr1-KO; assay type: cell-based, mouse; settings: 10 μM, Fmr1-KO
[2] = test system: PNs, WT cerebellar slices; test: Spontaneous firing of PNs, cell-attached, WT; assay type: cell-based, mouse; settings: 10 μM
[3] = test system: BC–PN synapse, WT; test: sIPSCs from PNs, paired BC–PN recording, WT synapses; assay type: cell-based, mouse; settings: peptide 2.5 mM infused into WT BCs, before and 20 min after; n = 5-6
[4] = test system: Kv1.2–FMRP interaction, cerebellar homogenates; test: Co-IP of Kv1.2 with FMRP (anti-FMRP antibody), peptide blocking; assay type: binding; settings: WT mouse cerebellar homogenates; 250 μM peptide added prior to anti-FMRP antibody; immunoblot; at least in triplicate
Procedure: Whole cerebellums from WT and Fmr1 KO mice were homogenized in ice-cold Pull-Down buffer (1% Lubrol, 50 mM Tris–HCl, pH 7.4, 10 nM Na-orthovanadate, 30 mM Na-pyrophosphate, 50 mM NaF, 20 μm ZnCl2, and 0.25 mM PMSF, with the addition of protease inhibitor cocktail) using a Potter-Elvehjem grinding chamber (VWR). Samples were then centrifuged at 5000g for 20 min and 500 μL of supernatants were transferred into 1.5 ml Eppendorf tubes. 1:100 dilutions of anti-FMRP (Abcam 17722), anti-Kv1.2 (K14/16; Neuromab), anti-Kv1.2 ext-c (extracellular; Alomone labs), anti-Kv1.2 N-term (NBP1-42802; Novus), or anti-GAPDH (GAPDH-71.1; 1:80,000; Sigma-Aldrich) antibodies were added to the homogenate and incubated at 4 °C under continuous agitation for 2 h. A total 30 μL of a 1:1 mixture of pre-washed protein A and protein G magnabeads (Genscript) was then added and the samples were incubated under the same conditions for another 2 h. Beads were washed 4 times with PBS-Tween (0.2% Tween w/v) and then centrifuged at 3000g for 1 min. A sample was kept to verify total protein input. Protein was disassociated from the beads with the addition of 30 μL of 2× loading buffer (4% SDS, 20% glycerol w/v, 0.1 M dithiothreitol, 100 mM Tris–HCl, pH 6.8) then submitting the samples to 3 min at 95 °C. […] Bands were quantified as previously described using the AlphaEase SA software. […]

[5] = biological target: T1, recombinant full-length FMRP (isoform 1) (Homo sapiens, UniProt Q06787); test: In vitro intrinsic protein fluorescence binding assay; settings: 500–1000 μM peptide and 1 μM FMRP, 100 mM NaCl, 50 mM Na2PO4 pH 7.4, 2 mM DTT, 20 °C, excitation 287 nm
T1 construct: containing cDNA for full-length human FMRP; His-SUMO (N, cleaved yes); made in house; host or cells: Escherichia coli BL21 (DE3) Codon Plus
Procedure: Small Ubiquitin-like Modifier (SUMO) fusion construct containing cDNA for full-length human FMRP was generated by gene synthesis (GenScript USA Inc.) and subcloned into a pET SUMO vector (Invitrogen). […] The pET SUMO–FMRP construct was transformed into Escherichia coli BL21 (DE3) Codon Plus cells and grown at 37 °C in Lennox broth medium. Protein expression was induced with 0.5 mM isopropyl-β-D-thiogalactopyranoside when optical density reached ~0.6, followed by 18 h of additional growth at 16 °C. Cells were harvested by centrifugation and pellets stored at −20 °C. In order to purify SUMO–FMRP, thawed pellets were resuspended in lysis buffer [50 mM Tris, pH 8.0, 500 mM NaCl, 20 mM imidazole, 10% glycerol, 250 mM arginine, 5 mM benzamidine, and 2 mM dithiothreitol (DTT)], supplemented with DNAse 1 and cOmplete™ Protease Inhibitor Cocktail (Sigma-Aldrich). After cell lysis and centrifugation, the filtered supernatant was loaded onto a 20 ml NiNTA column equilibrated in the same lysis buffer. The column was extensively washed with 20 column volumes (CV) of the same buffer supplemented with 100 mM imidazole. Elution of SUMO-fusion FMRP was performed using 100–500 mM imidazole gradient, and protein-containing fractions were combined and a 6× His tagged Ulp protease was added. Cleavage of the His-SUMO tag was performed overnight in a cold room (7 °C) while dialyzing in 4 L of 50 mM Tris, pH 8.0, 500 mM NaCl, 50 mM imidazole, 10% glycerol, 250 mM arginine, 5 mM benzamidine, and 2 mM DTT. Complete cleavage of the SUMO tag by Ulp was confirmed by SDS-PAGE and the protein of interest was separated from the Ulp protease and SUMO tag by passing the cleavage reaction over a second NiNTA column. Flow-through and wash fractions containing protein of interest were combined and then loaded onto a Superdex 200 gel filtration column pre-equilibrated with the same lysis buffer.
The eluted purified proteins were analyzed by both SDS-PAGE and mass spectrometry, and the combined fractions were dialyzed three times in 5 L of Fluorescence Binding Buffer (100 mM NaCl, 50 mM Na2PO4 pH 7.4, 2 mM DTT). After filtering through a 0.22 μm GV Durapore Centrifugal Filter Unit (Millipore), FMRP concentration was determined by absorbance at 280 nm using a molar extinction coefficient of 48,360 M^−1 cm^−1, and the protein was used for binding studies with Kv1.2 C-terminal peptides.
All measurements were carried out in the Fluorescence Binding Buffer at 20 °C using a PTI Quanta Master 80 Spectrofluorometer (HORIBA Scientific) by monitoring intrinsic protein fluorescence with an excitation wavelength of 287 nm. Prior to performing a binding titration for any of the peptides, a full emission spectrum (300–450 nm) of the peptide:FMRP complex was compared to that of apo-FMRP. Differences in the spectrum of the complex (500–1000 μM peptide and 1 μM FMRP) and apo-FMRP at the same concentration (i.e., fluorescence quenching, enhancement or shifts of the emission maximum) indicated binding. For each of these peptides, binding measurements were performed by adding aliquots of saturated 1 µM FMRP:peptide complex (titration solution) to 400 μL of 1 μM apo-FMRP solution as described by Wells and Di Cera. Briefly, at each titration step, a volume vD was removed from the cuvette containing the apo-FMRP and replaced by an equal volume of the titration solution (1 μM FMRP: 200–500 μM peptide complex). As a result, the concentration of FMRP (1 μM) and total volume of solution in the cuvette, V = 400 μL, remained constant while the concentration of the peptide at the ith titration step, [peptide]i, was increased, and given by
[peptide]i = [peptide]0^i.D^i+[peptide]∞^i.(1 − D^i),
where, [peptide]0 was the initial peptide concentration in the cuvette, [peptide]∞ was the peptide concentration in the titration solution, and D was the dilution factor, D = (V − vD)/V. […]

Compound | spontaneous firing of PNs, KO [1] | spontaneous firing of PNs, WT [2] | amplitude and frequency of sIPSCs [3] | inhibition of Kv1.2–FMRP binding (co-IP) [4] | change of fluorescence emission spectrum of FMRP (binding) [5] | change of fluorescence emission spectrum of FMRP (binding) ([5]; listed as doubly-phosphorylated scrambled peptide)
NS(=O)(=O)c1cccc2c1c([N+](=O)[O-])cc1nc(O)c(O)nc12 [NBQX] | little effect on the spontaneous firing | little effect on the spontaneous firing |  |  |  | 
IKPSTLSDSRAKpSSDPpSKPSIK [scrambled] |  |  | but not the non-phosphorylated or scrambled phosphorylated peptide, significantly elevated the amplitude and frequency of sIPSCs | Neither the non-phosphorylated peptide with the identical sequence (Kv436-457, ^436PKIPSSPDLKKSRSASTISKSD^457) nor the doubly-phosphorylated scrambled peptide (IKPSTLSDSRAKpSSDPpSKPSIK) inhibited the Kv1.2–FMRP binding activity | no change in the fluorescence emission spectrum of FMRP | no binding
